Laboratory results taken from patent publication US12077503B2, “Substituted cyclic amides and their use as herbicides” (FMC CORPORATION, priority 2015, dated 2024).

Columns and labels:
Type in all cases: in vivo
[1] = test system: barnyardgrass (Echinochloa crus-galli); test: Test G Pre-Emergence Protocol; details: Echinochloa crus-galli, pre-emergence, 312 h, evaluated after 13 days
Procedure, shortened: (§1)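 Pots of seeds in standard soil were grown for one day in a glasshouse (24/16 °C day/night, 14 h light, 65% humidity), then sprayed with compound in acetone/water 50:50 with 0.5% Tween 20 at 15.625, 62.5 or 250 g/ha. Damage was scored after 13 days on a 0 (none) to 100 (total) scale.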

[2] = test system: corn (Zea mays); test: Test G Pre-Emergence Protocol; details: Zea mays, pre-emergence, 312 h, evaluated after 13 days
Procedure, shortened: as §1

[3] = test system: giant foxtail (Setaria faberi); test: Test G Pre-Emergence Protocol; details: Setaria faberi, pre-emergence, 312 h, evaluated after 13 days
Procedure, shortened: as §1

[4] = test system: ivy-leaved morning glory (Ipomoea hederacea); test: Test G Pre-Emergence Protocol; details: Ipomoea, pre-emergence, 312 h, evaluated after 13 days
Procedure, shortened: as §1

[5] = test system: redroot pigweed (Amaranthus retroflexus); test: Test G Pre-Emergence Protocol; details: Amaranthus retroflexus, pre-emergence, 312 h, evaluated after 13 days
Procedure, shortened: as §1

[6] = test system: velvetleaf (Abutilon theophrasti); test: Test G Pre-Emergence Protocol; details: Abutilon theophrasti, pre-emergence, 312 h, evaluated after 13 days
Procedure, shortened: as §1

[7] = test system: barnyardgrass (Echinochloa crus-galli); test: Test G Post-Emergence Protocol; details: Echinochloa crus-galli, post-emergence, 312 h, read-out: Barnyardgrass damage rating
Procedure, shortened: (§2)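 Damage was rated 13 days after treatment from 0 (none) to 100 (plant killed). Compound was applied as a spray at 15.625, 62.5 or 250 g/ha in 50:50 acetone/water containing 0.5% Tween 20, onto 8-day-old potted plants kept in a glasshouse (24/16 °C, 14 h light, 65% humidity).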

[8] = test system: corn (Zea mays); test: Test G Post-Emergence Protocol; details: Zea mays, post-emergence, 312 h, read-out: Corn damage rating
Procedure, shortened: as §2

[9] = test system: giant foxtail (Setaria faberi); test: Test G Post-Emergence Protocol; details: Setaria faberi, post-emergence, 312 h, read-out: Foxtail, Giant damage rating
Procedure, shortened: as §2

[10] = test system: ivy-leaved morning glory (Ipomoea hederacea); test: Test G Post-Emergence Protocol; details: Ipomoea, post-emergence, 312 h, read-out: Morningglory, Ivy-leaved damage rating
Procedure, shortened: as §2

[11] = test system: redroot pigweed (Amaranthus retroflexus); test: Test G Post-Emergence Protocol; details: Amaranthus retroflexus, post-emergence, 312 h, read-out: Pigweed, Redroot damage rating
Procedure, shortened: as §2

[12] = test system: velvetleaf (Abutilon theophrasti); test: Test G Post-Emergence Protocol; details: Abutilon theophrasti, post-emergence, 312 h, read-out: Velvetleaf damage rating
Procedure, shortened: as §2

[13] = 15.625 g ai/ha, evaluated after 13 days (100=total damage to plant; 0=no damage to plant)
[14] = 62.5 g ai/ha, evaluated after 13 days, 100=total damage to plant, 0=no damage to plant
[15] = 250 g ai/ha, evaluated after 13 days, 100=total damage to plant, 0=no damage to plant

CN1C[C@H](c2ccc(C(F)(F)F)cc2)[C@@H](C(=O)Nc2cccc3c2S(=O)(=O)CC3)C1=O (racemic) [Compound 1737]
0%: pest or weed control at 15.625 g/ha ([1]; 15.625 g ai/ha, read-out: Barnyardgrass damage rating (100=total damage to plant; 0=no damage to plant)) | pest or weed control at 62.5 g/ha ([1]; 62.5 g ai/ha, 100=total damage to plant, 0=no damage to plant, read-out: Barnyardgrass damage rating) | pest or weed control at 250 g/ha ([1]; 250 g ai/ha, read-out: Barnyardgrass damage rating (100=total damage to plant; 0=no damage to plant)) | plant injury at 15.625 g/ha ([2]; 15.625 g ai/ha, read-out: Corn damage rating (100=total damage to plant; 0=no damage to plant)) | plant injury at 62.5 g/ha ([2]; 62.5 g ai/ha, 100=total damage to plant, 0=no damage to plant, read-out: Corn damage rating) | plant injury at 250 g/ha ([2]; 250 g ai/ha, read-out: Corn damage rating (100=total damage to plant; 0=no damage to plant)) | pest or weed control at 15.625 g/ha ([3]; 15.625 g ai/ha, read-out: Foxtail, Giant damage rating (100=total damage to plant; 0=no damage to plant)) | pest or weed control at 62.5 g/ha ([3]; 62.5 g ai/ha, 100=total damage to plant, 0=no damage to plant, read-out: Foxtail, Giant damage rating) | pest or weed control at 250 g/ha ([3]; 250 g ai/ha, read-out: Foxtail, Giant damage rating (100=total damage to plant; 0=no damage to plant)) | pest or weed control at 15.625 g/ha ([4]; 15.625 g ai/ha, read-out: Morningglory, Ivy-leaved damage rating (100=total damage to plant; 0=no damage to plant)) | pest or weed control at 62.5 g/ha ([4]; 62.5 g ai/ha, 100=total damage to plant, 0=no damage to plant, read-out: Morningglory, Ivy-leaved damage rating) | pest or weed control at 250 g/ha ([4]; 250 g ai/ha, read-out: Morningglory, Ivy-leaved damage rating (100=total damage to plant; 0=no damage to plant)) | pest or weed control at 15.625 g/ha ([5]; 15.625 g ai/ha, read-out: Pigweed, Redroot damage rating (100=total damage to plant; 0=no damage to plant)) | pest or weed control at 62.5 g/ha ([5]; 62.5 g ai/ha, 100=total damage to plant, 0=no damage to plant, read-out: Pigweed, Redroot damage rating) | pest or weed control at 250 g/ha ([5]; 250 g ai/ha, read-out: Pigweed, Redroot damage rating (100=total damage to plant; 0=no damage to plant)) | pest or weed control at 15.625 g/ha ([6]; 15.625 g ai/ha, read-out: Velvetleaf damage rating (100=total damage to plant; 0=no damage to plant)) | pest or weed control at 62.5 g/ha ([6]; 62.5 g ai/ha, 100=total damage to plant, 0=no damage to plant, read-out: Velvetleaf damage rating) | pest or weed control at 250 g/ha ([6]; 250 g ai/ha, read-out: Velvetleaf damage rating (100=total damage to plant; 0=no damage to plant)) | pest or weed control at 15.625 g/ha [7, 13] | pest or weed control at 62.5 g/ha [7, 14] | pest or weed control at 250 g/ha [7, 15] | plant injury at 15.625 g/ha [8, 13] | plant injury at 62.5 g/ha [8, 14] | plant injury at 250 g/ha [8, 15] | pest or weed control at 15.625 g/ha [9, 13] | pest or weed control at 62.5 g/ha [9, 14] | pest or weed control at 250 g/ha [9, 15] | pest or weed control at 15.625 g/ha [10, 13] | pest or weed control at 62.5 g/ha [10, 14] | pest or weed control at 250 g/ha [10, 15] | pest or weed control at 15.625 g/ha [11, 13] | pest or weed control at 62.5 g/ha [11, 14] | pest or weed control at 250 g/ha [11, 15] | pest or weed control at 15.625 g/ha [12, 13] | pest or weed control at 62.5 g/ha [12, 14] | pest or weed control at 250 g/ha [12, 15]
